From ChEMBL document CHEMBL1201862, “PubChem BioAssay data set” (2004)
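Results reflect a 48-hour exposure of cells in 96-well plates to compound at five concentrations. Abbreviation: GI50, concentration required for 50% inhibition of growth.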 Activity calls are given as the source filed them. No stated cut-off is given here; in the data, active = GI50 up to about 1.1 µM and inactive = higher.

Columns and labels:
Assay in all cases: DTP human tumour cell line panel, 48 h
U-251 = tested on: U-251
UO-31 = tested on: UO-31
SR = tested on: SR
NCI/ADR-RES = tested on: NCI/ADR-RES
SF-295 = tested on: SF-295
OVCAR-8 = tested on: OVCAR-8
LOX IMVI = tested on: LOX IMVI
KM12 = tested on: KM12
HOP-92 = tested on: HOP-92
SNB-75 = tested on: SNB-75
TK-10 = tested on: TK-10
RPMI-8226 = tested on: RPMI-8226
SF-268 = tested on: SF-268
SW-620 = tested on: SW-620
UACC-62 = tested on: UACC-62
HL-60 = tested on: HL-60
786-0 = tested on: 786-0
NCI-H23 = tested on: NCI-H23
MOLT-4 = tested on: MOLT-4
DU-145 = tested on: DU-145

Measured: GI50

Cc1noc(NS(=O)(=O)c2ccc(NC(=O)c3ccc4nc5ccccc5c(Nc5ccc(S(=O)(=O)Nc6onc(C)c6C)cc5)c4c3)cc2)c1C
inactive: U-251 > 100 µM | UO-31 > 100 µM | SR 42 µM | NCI/ADR-RES > 100 µM | SF-295 > 100 µM | OVCAR-8 > 100 µM | LOX IMVI 21 µM | KM12 > 100 µM | HOP-92 > 100 µM | SNB-75 > 100 µM | TK-10 > 100 µM | RPMI-8226 36.2 µM | SF-268 > 100 µM | SW-620 97.7 µM | UACC-62 > 100 µM | HL-60 42.3 µM | 786-0 56.8 µM | NCI-H23 > 100 µM | MOLT-4 80.5 µM | DU-145 > 100 µM

O=c1oc2cc(O)ccc2c(O)c1C(c1ccccc1F)c1c(O)c2ccc(O)cc2oc1=O
inactive: U-251 42.3 µM | UO-31 > 100 µM | SR 34.7 µM | NCI/ADR-RES > 100 µM | SF-295 > 100 µM | OVCAR-8 56.4 µM | LOX IMVI 46 µM | KM12 78.3 µM | HOP-92 65.2 µM | SNB-75 > 100 µM | TK-10 > 100 µM | RPMI-8226 29.6 µM | SF-268 78.2 µM | SW-620 38.4 µM | UACC-62 36.6 µM | HL-60 17.9 µM | 786-0 > 100 µM | NCI-H23 > 100 µM | MOLT-4 45.8 µM | DU-145 > 100 µM

COC(=O)c1c(C)cc(OC)c(C/C=C(\C)CCCc2coc(C=C(C)C)c2)c1OC
inactive: U-251 > 100 µM | UO-31 > 100 µM | SR 7.6 µM | NCI/ADR-RES > 100 µM | SF-295 > 100 µM | OVCAR-8 > 100 µM | LOX IMVI > 100 µM | KM12 > 100 µM | HOP-92 > 100 µM | SNB-75 21.3 µM | TK-10 > 100 µM | RPMI-8226 99.5 µM | SF-268 1.71 µM | SW-620 > 100 µM | UACC-62 > 100 µM | HL-60 21.9 µM | 786-0 > 100 µM | NCI-H23 > 100 µM | MOLT-4 37.4 µM | DU-145 > 100 µM

Cc1cc2c(cc1C)C(=O)c1ncccc1C2=O
active: SR < 0.01 µM
inactive: U-251 35.7 µM | UO-31 37.3 µM | NCI/ADR-RES 22.8 µM | SF-295 41.8 µM | OVCAR-8 31.9 µM | LOX IMVI 29.4 µM | KM12 31.5 µM | HOP-92 58.6 µM | SNB-75 54.5 µM | TK-10 > 100 µM | RPMI-8226 29.9 µM | SF-268 49.3 µM | SW-620 30.9 µM | UACC-62 30.3 µM | HL-60 11.2 µM | 786-0 28.5 µM | NCI-H23 15.6 µM | MOLT-4 20.4 µM | DU-145 24.2 µM

Cc1nc2ccc(S(=O)(=O)Nc3ccccc3Cl)cc2c(=O)n1NC(=O)CNc1ccccc1Cl
inactive: U-251 > 100 µM | UO-31 > 100 µM | SR > 100 µM | NCI/ADR-RES > 100 µM | SF-295 > 100 µM | OVCAR-8 > 100 µM | LOX IMVI > 100 µM | KM12 > 100 µM | HOP-92 > 100 µM | SNB-75 > 100 µM | TK-10 > 100 µM | RPMI-8226 > 100 µM | SF-268 > 100 µM | SW-620 > 100 µM | UACC-62 > 100 µM | HL-60 > 100 µM | 786-0 > 100 µM | NCI-H23 > 100 µM | MOLT-4 > 100 µM | DU-145 > 100 µM
